Data from PubChem BioAssay (NCI).
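Interpolation was linear, between the two tested concentrations surrounding the appropriate level; five concentrations were tested over 48 hours in 96-well plates. At the GI50, growth is halved. TGI: concentration producing complete growth inhibition.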

Key:
Experiment in all cases: NCI-60 cell line screen, 48 h
[1] = test system: SK-OV-3 ovarian
[2] = test system: LOX IMVI melanoma
[3] = test system: NCI/ADR-RES ovarian
[4] = test system: NCI-H23 lung
[5] = test system: NCI-H460 lung
[6] = test system: K-562 leukemia
[7] = test system: MOLT-4 leukemia
[8] = test system: MCF7 breast
[9] = test system: SK-MEL-5 melanoma
[10] = test system: KM20L2 colon
[11] = test system: DLD-1 colon
[12] = test system: M19-MEL melanoma
[13] = test system: DMS 273 small cell lung

Compound | TGI [1] [µM] | TGI [2] [µM] | TGI [3] [µM] | TGI [4] [µM] | TGI [5] [µM] | TGI [6] [µM] | TGI [7] [µM] | TGI [8] [µM] | TGI [9] [µM] | GI50 [1] [µM] | GI50 [6] [µM] | TGI [10] [µM] | TGI [11] [µM] | TGI [12] [µM] | TGI [13] [µM] | GI50 [3] [µM]
COc1ccccc1CC(=O)C(O)(C(F)(F)F)C(F)(F)F | > 100 | > 100 | > 100 | > 100 | > 100 | > 100 | > 100 | > 100 | > 100 | – | – | – | – | – | – | –
Cc1ccc(S(=O)(=O)N2C3C=CC(C3)[C@@H]2C(Cl)(Cl)Cl)cc1 (some centres not stated) | > 100 | 33.2 | 44.6 | > 100 | 35.5 | > 100 | 75 | > 100 | 38.3 | 39.2 | 28.5 | – | – | – | – | –
O=C(C(=O)n1ccc2ccccc21)n1ccc2ccccc21 | > 100 | > 100 | > 100 | > 100 | > 100 | > 100 | > 100 | > 100 | > 100 | – | – | – | – | – | – | –
CC1=C/C(=N\NC(N)=S)C(C(O)(C(F)(F)F)C(F)(F)F)C(C)(C)C1 (configuration not stated) | > 10 | > 10 | > 10 | > 10 | > 10 | > 10 | > 10 | > 10 | > 10 | – | – | – | – | – | – | –
C(=C/CCCN1O[C@@H](CCCCCCCCc2cccnc2)[C@H]2CCC[C@H]21)/CCCCCCCCCc1cccnc1 | 47.2 | 35.3 | 88.5 | 61.7 | 39.2 | 29 | 55.1 | 31.6 | 43.7 | – | – | – | – | – | – | –
O=C1/C(=C/c2ccco2)NC(=S)N1CN1CCCCC1 | > 100 | > 100 | > 100 | > 100 | – | > 100 | > 100 | > 100 | > 100 | – | – | – | – | – | – | –
CCOC(=O)c1cn2c(n1)sc1cc(F)ccc12 | > 100 | > 100 | > 100 | > 100 | > 100 | > 100 | > 100 | > 100 | > 100 | – | – | – | – | – | – | –
CCOC(=O)C12OC(OCC)(CC1(OCC)OCC)C1(CC1)C2=O (configuration not stated) | > 100 | > 100 | > 100 | > 100 | > 100 | > 100 | > 100 | > 100 | > 100 | – | – | – | – | – | – | –
Cc1cn(C2OC(CO[Si](C)(C)C(C)(C)C)C(N(C)O[Si](C)(C)C(C)(C)C)C2[Se]c2ccccc2)c(=O)[nH]c1=O (configuration not stated) | > 100 | 10.2 | 58 | 24.6 | – | > 100 | > 100 | 25.4 | 53.7 | – | – | – | – | – | – | –
COc1ccc(C2Oc3cc(OC)c(OC)cc3C2CCl)cc1OC (configuration not stated) | – | > 100 | – | – | > 100 | > 100 | > 100 | – | > 100 | – | – | > 100 | > 100 | > 100 | > 100 | –
CCOC(=O)CCCSCCCC(=O)CCCSCCCC(=O)OCC | > 100 | > 100 | > 100 | > 100 | > 100 | > 100 | > 100 | > 100 | > 100 | – | – | – | – | – | – | –
COc1ccc(C2c3cc4c(cc3OC3(OC)COC(=O)C23)OCO4)c(OC)c1 (configuration not stated) | > 86 | > 100 | 34.5 | > 100 | > 100 | 34.4 | 71.2 | 90.4 | > 90.1 | – | – | – | – | – | – | –
CCOC(=O)CCC(NC(=O)C(N)Cc1ccc(N(CCCl)CCCl)cc1)C(=O)OCC (configuration not stated) | 5.3 | 1.63 | 19 | 1.68 | 4.09 | 12.7 | 1.99 | 9.5 | 2.93 | – | – | – | – | – | – | 3.52
COc1ccc(S(=O)(=O)n2c3c(c4ccccc42)[C@@H]2[C@@H](CCCN2C(=O)CS(=O)c2ccc(C)cc2)[C@H](Cl)C3)cc1 (some centres not stated) | > 100 | > 100 | > 100 | > 100 | > 100 | > 100 | > 100 | > 100 | > 100 | – | – | – | – | – | – | –
COc1ccc(C2=CC(C(C)=C(C(N)=O)C(N)=O)C=C(c3ccc(Br)cc3)C2)c(OC)c1 (configuration not stated) | > 100 | > 100 | > 100 | > 100 | > 100 | > 100 | > 100 | > 100 | > 100 | – | – | – | – | – | – | –
CCOC(=O)c1csc(NC(=O)CN2CCCC2)n1 | > 100 | > 100 | > 100 | > 100 | > 100 | > 100 | > 100 | > 100 | > 100 | – | – | – | – | – | – | –
O=C1c2cc3c(cc2CC12Cc1ccc4c(c1C2=O)CCC4)CCCC3 (configuration not stated) | > 100 | > 100 | > 100 | > 100 | > 100 | > 100 | > 100 | > 100 | > 100 | – | – | – | – | – | – | –
O=C1/C(=C\c2ccc(Cl)cc2Cl)Sc2scc(-c3ccc(O)c(O)c3)[n+]21 | 39.2 | 40.8 | 35.6 | 31.3 | 48.2 | – | 29.6 | 73.2 | 22.9 | – | – | – | – | – | – | –
Cc1[nH]c(=O)nc2sc(=NC3CCCCC3)n(C3CCCCC3)c(=O)c12 | > 100 | > 100 | > 100 | > 100 | – | > 100 | > 100 | > 100 | > 100 | – | – | – | – | – | – | –
COCOC1/C=C/CCCCC(=O)C(C)C#CC1 (configuration not stated) | 32.3 | 7.36 | 14.4 | 16.3 | 23.9 | 7.66 | 5.64 | 14.8 | 15.3 | – | – | – | – | – | – | –
C[N+]12C=CC=C1C(N1CCCC1)c1scc(-c3ccc(Br)cc3)c12 (configuration not stated) | > 100 | > 100 | > 100 | 32.4 | > 84.7 | > 89.9 | > 65.3 | > 90.1 | 16.1 | – | – | – | – | – | – | –
CSC(=O)c1sc(SC)[n+](-c2ccccc2)c1O | > 100 | 44.8 | > 100 | 39.7 | 86.3 | > 100 | 41.4 | 52.8 | 55.7 | – | – | – | – | – | – | –
